Laboratory results from US6927210B1, “Ectoparasiticidal aqueous suspension formulations of spinosyns” (Eli Lilly and Company, priority 1999, dated 2005).

Assay: Solution state of spinosad in dip water
Assay type: physicochemical
Conditions: 5 and 50 ppm
Experimental: Two trials were conducted to determine the degree to which spinosad is removed (stripped) from dip water after dipping sheep. In the trials, spinosad dip tank concentrations of 50 ppm and 5 ppm were prepared from an aqueous suspension containing 25 g/L of spinosad. Both trials involved dipping 10 Dorset-cross shorn sheep in 70 gallons (265 liters) of treated water. Each animal was dipped for 30 seconds duration, with the head immersed twice. Samples of dip water were taken for HPLC analysis, initially and after each sheep was dipped. The pH of the water was also determined after each animal was dipped. A dip tank concentration of 5 ppm of spinosad should provide lice control on sheep.

spinosad
Solution state in dip water (in words): in true solution at 5 and 50 ppm concentration
